Test results reported in patent publication US11286247B2, “Acryloyl-containing nuclear transport regulators and uses thereof” (WIGEN BIOMEDICINE TECHNOLOGY (SHANGHAI) CO., LTD., priority 2019, dated 2022).

Experiments:
[1] = In vivo pharmacokinetic analysis; conditions: ICR, mouse; mice, 5 mg/kg, oral gavage in 0.5% CMC, plasma
Experimental: A group of 9 ICR mice received 5 mg/kg of compound in 0.5% CMC by oral gavage. Blood was taken before treatment and at 5 min, 30 min, 1, 2, 4, 8, 12 and 24 h after treatment. 80 μL of whole blood was sampled (n=3 at each time point) via retro-orbital bleeds or cardiac puncture. The blood sample was collected into EDTA tubes and plasma were obtained by centrifugation at 1500-1600 rpm for 10 min at 4° C. After centrifugation, plasma sample was transferred to a new tube and stored at −60 to −90° C. for future analysis. Plasma concentration of (compounds was quantified by a method based on liquid chromatography coupled to tandem mass-spectrometric detections (LC/MS/MS). Noncompartmental pharmacokinetics parameters were calculated.

[2] = system: BxPC-3 cells (pancreatic cancer); test: Cancer cell proliferation assay, BxPC-3; format: cell-based; conditions: Homo sapiens, BXPC-3, 72 h; three days incubation, absorbance 570 nm; read-out: IC50 (μM) BxPC-3
Experimental: (§1) BxPC-3 cells (pancreatic cancer) and MDA-MB-231 cells (breast cancer cells) were harvested from exponential phase cultures and seeded in 96-well plates at a cell density of 2×10^4 per well. After overnight attachment, compounds including positive controls were applied to cells at five concentrations and incubated for three days. During the last four hours of incubation, 20 μL of 5 mg/mL […] was added followed by the further addition of 100 μL DMSO. The plates were subsequently shook for 10 minutes to dissolve insoluble purple formazan. Absorbance (A) at a wavelength of 570 nm was quantified. Percentage of inhibition was used for the calculation of IC50 based on the bliss method.

[3] = system: MDA-MB-231 cells (breast cancer cells); test: Cancer cell proliferation assay, MDA-MB-231; format: cell-based; conditions: Homo sapiens, MDA-MB-231, 72 h; three days incubation, absorbance 570 nm; read-out: IC50 (μM) MDA-MB-231
Experimental: as §1

CRM1 = target: T1, CRM1 (Homo sapiens, UniProt O14980); test: Rev-GFP nuclear export assay; format: cell-based; conditions: U2OS cells expressing Rev-GFP, 1 hour incubation, nuclear retention of Rev-GFP
T1 construct: The nuclear localization of Rev protein depends on CRM1; endogenous in cells; host or cells: U2OS cells stably or transiently expressing Rev-GFP (reporter cargo)
T1 sequence (O14980 whole entry): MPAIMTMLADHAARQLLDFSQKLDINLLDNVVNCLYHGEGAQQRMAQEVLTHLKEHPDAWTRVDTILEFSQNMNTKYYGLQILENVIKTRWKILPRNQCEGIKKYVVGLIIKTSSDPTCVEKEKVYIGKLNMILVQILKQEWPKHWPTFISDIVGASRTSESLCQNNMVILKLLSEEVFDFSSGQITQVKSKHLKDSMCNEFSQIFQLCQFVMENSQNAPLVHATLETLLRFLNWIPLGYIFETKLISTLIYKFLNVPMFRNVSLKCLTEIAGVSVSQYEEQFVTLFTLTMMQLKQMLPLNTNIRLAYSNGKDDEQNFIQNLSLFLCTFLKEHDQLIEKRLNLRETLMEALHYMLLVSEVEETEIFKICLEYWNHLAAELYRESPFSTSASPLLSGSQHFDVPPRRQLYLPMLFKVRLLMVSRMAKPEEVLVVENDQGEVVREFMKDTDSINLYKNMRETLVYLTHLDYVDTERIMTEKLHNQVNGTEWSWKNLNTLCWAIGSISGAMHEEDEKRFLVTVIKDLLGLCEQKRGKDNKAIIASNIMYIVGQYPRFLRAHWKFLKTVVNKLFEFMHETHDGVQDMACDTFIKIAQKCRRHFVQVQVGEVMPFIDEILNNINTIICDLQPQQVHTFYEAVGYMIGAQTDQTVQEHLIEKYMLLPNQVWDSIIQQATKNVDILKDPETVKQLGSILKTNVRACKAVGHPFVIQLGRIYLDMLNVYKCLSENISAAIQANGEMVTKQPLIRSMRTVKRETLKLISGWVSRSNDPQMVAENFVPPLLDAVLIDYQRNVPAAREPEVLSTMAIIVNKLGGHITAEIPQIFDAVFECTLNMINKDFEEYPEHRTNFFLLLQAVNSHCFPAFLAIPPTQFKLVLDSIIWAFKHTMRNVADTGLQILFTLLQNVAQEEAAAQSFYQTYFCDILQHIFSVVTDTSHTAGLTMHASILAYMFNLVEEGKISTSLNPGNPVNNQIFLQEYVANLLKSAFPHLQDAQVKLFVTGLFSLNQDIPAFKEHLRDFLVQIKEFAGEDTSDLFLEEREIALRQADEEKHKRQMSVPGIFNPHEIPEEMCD
Experimental: The Rev protein from HIV contains nuclear export sequence (NES) at its C terminus and nuclear localization sequence (NLS) at its N-terminus. The nuclear localization of Rev protein depends on CRM1. U2OS cells expressing Rev protein fused with GFP (Rev-GFP) were plated in black 384 plates with clear bottom one day prior to treatment. Compounds were serially diluted 2-fold from 40 μM with DMEM in 384 plates, and then incubated with U2OS cells for an hour. Cells were fixed with 3.7% formaldehyde afterwards and nuclei were stained with Hoechst33258. The nuclear retention of Rev-GFP was examined, and IC50 was calculated.

SMILES | AUC(0-t) [1] | Cmax [1] | MRT [1] | Tmax [1] | half-life [1] | IC50 [2] | IC50 [3] | IC50 (CRM1)
O=C(/C=C\n1cnc(-c2cc(C(F)(F)F)cc(C(F)(F)F)c2)n1)NN1CCC2(CC2)C1=O [Compound 18, (Z)-3-(3-(3,5-bis(trifluoromethyl)phenyl)-1H-1,2,4-triazol-1-yl)-N-(4-oxo-5-azaspiro[2.4]heptan-5-yl)acrylamide] | 3100 ng·h/mL | 320 ng/mL | 6.17 h | 0.5 h | 3.12 h |  |  | 
[2H]C([2H])([2H])OC1=CC(=O)N(NC(=O)/C=C\n2cnc(-c3cc(C(F)(F)F)cc(C(F)(F)F)c3)n2)C1 [Compound 82, (Z)-3-(3-(3,5-bis(trifluoromethyl)phenyl)-1H-1,2,4-triazol-1-yl)-N-(4-(methoxy-d3)-2-oxo-2,5-dihydro-1H-pyrrol-1-yl)acrylamide] |  |  |  |  |  | 0.016 µM | 0.102 µM | < 1000 nM
O=C(/C=C\n1cnc(-c2cc(C(F)(F)F)cc(C(F)(F)F)c2)n1)NN1C(=O)[C@H]2CC[C@@H]1C2 [Compound 32, (Z)-3-(3-(3,5-bis(trifluoromethyl)phenyl)-1H-1,2,4-triazol-1-yl)-N-((1R,4S)-3-oxo-2-azabicyclo[2.2.1]heptan-2-yl)acrylamide] |  |  |  |  |  | 0.134 µM | 0.277 µM | < 1000 nM
CC1=CC(=O)N(NC(=O)/C=C\n2cnc(-c3cc(C(F)(F)F)cc(C(F)(F)F)c3)n2)CC1 [Compound 89, (Z)-3-(3-(3,5-bis(trifluoromethyl)phenyl)-1H-1,2,4-triazol-1-yl)-N-(4-methyl-6-oxo-3,6-dihydropyridin-1(2H)-yl)acrylamide] |  |  |  |  |  | 0.184 µM | 0.277 µM | < 1000 nM
O=C(/C=C\n1cnc(-c2cc(C(F)(F)F)cc(C(F)(F)F)c2)n1)NN1CCC=CC1=O [Compound 88, (Z)-3-(3-(3,5-bis(trifluoromethyl)phenyl)-1H-1,2,4-triazol-1-yl)-N-(6-oxo-3,6-dihydropyridin-1(2H)-yl)acrylamide] |  |  |  |  |  | 0.259 µM | 0.41 µM | < 1000 nM
O=C(/C=C\n1cnc(-c2cc(C(F)(F)F)cc(C(F)(F)F)c2)n1)NN1CCCCCC1=O [Compound 4, (Z)-3-(3-(3,5-bis(trifluoromethyl)phenyl)-1H-1,2,4-triazol-1-yl)-N-(2-oxoazepan-1-yl)acrylamide] |  |  |  |  |  | 0.238 µM | 0.034 µM | < 1000 nM
O=C(/C=C\n1cnc(-c2cc(C(F)(F)F)cc(C(F)(F)F)c2)n1)N1CCCN1c1cnccn1 [Compound 96, (Z)-3-(3-(3,5-bis(trifluoromethyl)phenyl)-1H-1,2,4-triazol-1-yl)-1-(2-(pyrazin-2-yl)pyrazolidin-1-yl)prop-2-en-1-one] |  |  |  |  |  | 0.334 µM | 0.675 µM | < 1000 nM
CC(C)N1C(=O)CCN1C(=O)/C=C\n1cnc(-c2cc(C(F)(F)F)cc(C(F)(F)F)c2)n1 [Compound 65, (Z)-1-(3-(3-(3,5-bis(trifluoromethyl)phenyl)-1H-1,2,4-triazol-1-yl)acryloyl)-2-isopropylpyrazolidin-3-one] |  |  |  |  |  | 0.168 µM | 0.055 µM | < 1000 nM
CCC1=C(C)CN(NC(=O)/C=C\n2cnc(-c3cc(C(F)(F)F)cc(C(F)(F)F)c3)n2)C1=O [Compound 6, (Z)-3-(3-(3,5-bis(trifluoromethyl)phenyl)-1H-1,2,4-triazol-1-yl)-N-(3-ethyl-4-methyl-2-oxo-2,5-dihydro-1H-pyrrol-1-yl)acrylamide] |  |  |  |  |  | 0.471 µM | 0.487 µM | < 1000 nM
O=C(/C=C\n1cnc(-c2cc(C(F)(F)F)cc(C(F)(F)F)c2)n1)Nn1ccccc1=O [Compound 56, (Z)-3-(3-(3,5-bis(trifluoromethyl)phenyl)-1H-1,2,4-triazol-1-yl)-N-(2-oxopyridin-1(2H)-yl)acrylamide] |  |  |  |  |  | 0.449 µM | 0.382 µM | < 1000 nM
O=C(/C=C\n1cnc(-c2cc(C(F)(F)F)cc(C(F)(F)F)c2)n1)NN1CC[C@H](O)C1=O [Compound 10, (S,Z)-3-(3-(3,5-bis(trifluoromethyl)phenyl)-1H-1,2,4-triazol-1-yl)-N-(3-hydroxy-2-oxopyrrolidin-1-yl)acrylamide] |  |  |  |  |  | 0.527 µM | 0.519 µM | 1000 to 10000 nM
CCOC1=CC(=O)N(NC(=O)/C=C\n2cnc(-c3cc(C(F)(F)F)cc(C(F)(F)F)c3)n2)C1 [Compound 80, (Z)-3-(3-(3,5-bis(trifluoromethyl)phenyl)-1H-1,2,4-triazol-1-yl)-N-(4-ethoxy-2-oxo-2,5-dihydro-1H-pyrrol-1-yl)acrylamide] |  |  |  |  |  | 0.145 µM | 0.266 µM | < 1000 nM
O=C(/C=C\n1cnc(-c2cc(C(F)(F)F)cc(C(F)(F)F)c2)n1)NN1CC(O)CC1=O (stereo not drawn) [Compound 15, (Z)-3-(3-(3,5-bis(trifluoromethyl)phenyl)-1H-1,2,4-triazol-1-yl)-N-(4-hydroxy-2-oxopyrrolidin-1-yl)acrylamide] |  |  |  |  |  | 0.352 µM | 1.23 µM | 
O=C(/C=C\n1cnc(-c2cc(C(F)(F)F)cc(C(F)(F)F)c2)n1)NN1CCCCC1=O [Compound 3, (Z)-3-(3-(3,5-bis(trifluoromethyl)phenyl)-1H-1,2,4-triazol-1-yl)-N-(2-oxopiperidin-1-yl)acrylamide] | 5810 ng·h/mL | 499 ng/mL | 7.86 h | 1 h | 3.31 h |  |  | 
O=C(/C=C\n1cnc(-c2cc(C(F)(F)F)cc(C(F)(F)F)c2)n1)NN1C(=O)[C@H]2C=C[C@@H]1C2 [Compound 30, (Z)-3-(3-(3,5-bis(trifluoromethyl)phenyl)-1H-1,2,4-triazol-1-yl)-N-((1S,4R)-3-oxo-2-azabicyclo[2.2.1]hept-5-en-2-yl)acrylamide] |  |  |  |  |  | 0.392 µM | 0.515 µM | < 1000 nM
O=C(/C=C\n1cnc(-c2cc(C(F)(F)F)cc(C(F)(F)F)c2)n1)N1CCC(=O)N1Cc1ccccc1 [Compound 67, (Z)-2-benzyl-1-(3-(3-(3,5-bis(trifluoromethyl)phenyl)-1H-1,2,4-triazol-1-yl)acryloyl)pyrazolidin-3-one] |  |  |  |  |  | 0.483 µM | 0.965 µM | < 1000 nM
O=C(/C=C\n1cnc(-c2cc(C(F)(F)F)cc(C(F)(F)F)c2)n1)NN1CC2CCCCC2C1=O (stereo not drawn) [Compound 28, (Z)-3-(3-(3,5-bis(trifluoromethyl)phenyl)-1H-1,2,4-triazol-1-yl)-N-(1-oxooctahydro-2H-isoindol-2-yl)acrylamide] |  |  |  |  |  | 0.769 µM | 0.24 µM | 1000 to 10000 nM
O=C(/C=C\n1cnc(-c2cc(C(F)(F)F)cc(C(F)(F)F)c2)n1)N1CCCN1C(=O)C1CC1 [Compound 98, (Z)-3-(3-(3,5-bis(trifluoromethyl)phenyl)-1H-1,2,4-triazol-1-yl)-1-(2-(cyclopropanecarbonyl)pyrazolidin-1-yl)prop-2-en-1-one] |  |  |  |  |  | 0.302 µM | 0.487 µM | < 1000 nM
O=C(/C=C\n1cnc(-c2cc(C(F)(F)F)cc(C(F)(F)F)c2)n1)NN1CC(OCC(F)(F)F)=CC1=O [Compound 83, (Z)-3-(3-(3,5-bis(trifluoromethyl)phenyl)-1H-1,2,4-triazol-1-yl)-N-(2-oxo-4-(2,2,2-trifluoroethoxy)-2,5-dihydro-1H-pyrrol-1-yl)acrylamide] |  |  |  |  |  | 0.344 µM | 0.214 µM | < 1000 nM
